In PubChem BioAssay AID2060900 (Molecular Pharmacology Branch, DTP, NCI, 2025):

System: 521955-158-R2-J5-PDC complex spheroids, viability
Test: Anticancer human tumor 521955-158-R2-J5-PDC patient-derived pancreatic carcinoma cell line growth inhibition [RAS]
Conditions: for IC50: curve of first compound; for viability, T/C: stronger effect = lower value
How it was run: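 Agents were tested in combination matrices in half-log decrements from a top concentration at or near clinical Cmax (10 microM if undetermined). Targets were multi-cell spheroids of tumour lines plus HUVEC and MSC stromal cells.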

[1] = second compound 0.000949 µM, first compound 0.0316 µM
[2] = second compound 0.000949 µM, first compound 0.1 µM
[3] = second compound 0.000949 µM, first compound 0.316 µM
[4] = second compound 0.000949 µM, first compound 1 µM
[5] = second compound 0.000949 µM, first compound 3.16 µM
[6] = second compound 0.000949 µM, first compound 10 µM
[7] = second compound 0.003 µM, first compound 0.0316 µM
[8] = second compound 0.003 µM, first compound 0.1 µM
[9] = second compound 0.003 µM, first compound 0.316 µM
[10] = second compound 0.003 µM, first compound 1 µM
[11] = second compound 0.003 µM, first compound 3.16 µM
[12] = second compound 0.003 µM, first compound 10 µM
[13] = second compound 0.00949 µM, first compound 0.0316 µM
[14] = second compound 0.00949 µM, first compound 0.1 µM
[15] = second compound 0.00949 µM, first compound 0.316 µM
[16] = second compound 0.00949 µM, first compound 1 µM
[17] = second compound 0.00949 µM, first compound 3.16 µM
[18] = second compound 0.00949 µM, first compound 10 µM
[19] = second compound 0.03 µM, first compound 0.0316 µM
[20] = second compound 0.03 µM, first compound 0.1 µM
[21] = second compound 0.03 µM, first compound 0.316 µM
[22] = second compound 0.03 µM, first compound 1 µM
[23] = second compound 0.03 µM, first compound 3.16 µM
[24] = second compound 0.03 µM, first compound 10 µM
[25] = second compound 0.0949 µM, first compound 0.0316 µM
[26] = second compound 0.0949 µM, first compound 0.1 µM
[27] = second compound 0.0949 µM, first compound 0.316 µM
[28] = second compound 0.0949 µM, first compound 1 µM
[29] = second compound 0.0949 µM, first compound 3.16 µM
[30] = second compound 0.0949 µM, first compound 10 µM
[31] = second compound 0.3 µM, first compound 0.0316 µM
[32] = second compound 0.3 µM, first compound 0.1 µM
[33] = second compound 0.3 µM, first compound 0.316 µM
[34] = second compound 0.3 µM, first compound 1 µM
[35] = second compound 0.3 µM, first compound 3.16 µM
[36] = second compound 0.3 µM, first compound 10 µM
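Further: compound exposure lasted seven days before the viability read.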
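Wherever viability, T/C is given: spheroids also contain HUVEC endothelial cells and mesenchymal stem cells as stroma.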

## CC(C)NCC(C(=O)N1CCN(c2ncnc3c2C(C)CC3O)CC1)c1ccc(Cl)cc1 (stereo unspecified) + CCn1c(-c2cccnc2C(C)OC)c2c3cc(ccc31)N1CCOC(CC(NC(=O)C(C(C)C)N(C)C(=O)C3(F)CCN(C(=O)C#CC(C)(C)N(C)C)CC3)C(=O)N3CCCC(N3)C(=O)OCC(C)(C)C2)C1
Second compound 0.000949 µM
  IC50: > 10000 nM
Second compound 0.003 µM
  IC50: > 10000 nM
Second compound 0.00949 µM
  IC50: > 10000 nM
Second compound 0.03 µM
  IC50: > 10000 nM
Second compound 0.0949 µM
  IC50: > 10000 nM
Second compound 0.3 µM
  IC50: 8610 nM
[1]
  viability, T/C: 84.8%
[2]
  viability, T/C: 85.3%
[3]
  viability, T/C: 84.9%
[4]
  viability, T/C: 62.7%
[5]
  viability, T/C: 68%
[6]
  viability, T/C: 72%
[7]
  viability, T/C: 81.6%
[8]
  viability, T/C: 92.5%
[9]
  viability, T/C: 77.4%
[10]
  viability, T/C: 56.1%
[11]
  viability, T/C: 62.4%
[12]
  viability, T/C: 79.1%
[13]
  viability, T/C: 88.7%
[14]
  viability, T/C: 91.7%
[15]
  viability, T/C: 78.7%
[16]
  viability, T/C: 53%
[17]
  viability, T/C: 60.1%
[18]
  viability, T/C: 68%
[19]
  viability, T/C: 83.9%
[20]
  viability, T/C: 100%
[21]
  viability, T/C: 83%
[22]
  viability, T/C: 57.5%
[23]
  viability, T/C: 68.3%
[24]
  viability, T/C: 56.8%
[25]
  viability, T/C: 93.6%
[26]
  viability, T/C: 92%
[27]
  viability, T/C: 82.4%
[28]
  viability, T/C: 64.3%
[29]
  viability, T/C: 61.3%
[30]
  viability, T/C: 59.9%
[31]
  viability, T/C: 67.2%
[32]
  viability, T/C: 76.6%
[33]
  viability, T/C: 67.9%
[34]
  viability, T/C: 57.2%
[35]
  viability, T/C: 57.4%
[36]
  viability, T/C: 49.6%

## CC(Nc1ccc2c(c1)OCCn1cc(N3C(=O)OCC3C(F)F)nc1-2)C(N)=O (stereo unspecified) + CCn1c(-c2cccnc2C(C)OC)c2c3cc(ccc31)N1CCOC(CC(NC(=O)C(C(C)C)N(C)C(=O)C3(F)CCN(C(=O)C#CC(C)(C)N(C)C)CC3)C(=O)N3CCCC(N3)C(=O)OCC(C)(C)C2)C1
Second compound 0.000949 µM
  IC50: 131 nM
Second compound 0.003 µM
  IC50: < 31.6 nM
Second compound 0.00949 µM
  IC50: < 31.6 nM
Second compound 0.03 µM
  IC50: < 31.6 nM
Second compound 0.0949 µM
  IC50: < 31.6 nM
Second compound 0.3 µM
  IC50: < 31.6 nM
[1]
  viability, T/C: 63.1%
[2]
  viability, T/C: 46.7%
[3]
  viability, T/C: 34.7%
[4]
  viability, T/C: 27%
[5]
  viability, T/C: 83.6%
[6]
  viability, T/C: 17.9%
[7]
  viability, T/C: 59.7%
[8]
  viability, T/C: 36.6%
[9]
  viability, T/C: 32.3%
[10]
  viability, T/C: 23.8%
[11]
  viability, T/C: 93.3%
[12]
  viability, T/C: 16.3%
[13]
  viability, T/C: 41.8%
[14]
  viability, T/C: 46.3%
[15]
  viability, T/C: 31.9%
[16]
  viability, T/C: 26.3%
[17]
  viability, T/C: 108%
[18]
  viability, T/C: 15.6%
[19]
  viability, T/C: 49.8%
[20]
  viability, T/C: 44.2%
[21]
  viability, T/C: 33.9%
[22]
  viability, T/C: 30.8%
[23]
  viability, T/C: 70.1%
[24]
  viability, T/C: 13.9%
[25]
  viability, T/C: 39.1%
[26]
  viability, T/C: 33.6%
[27]
  viability, T/C: 28%
[28]
  viability, T/C: 22.4%
[29]
  viability, T/C: 74.8%
[30]
  viability, T/C: 13.6%
[31]
  viability, T/C: 39.1%
[32]
  viability, T/C: 32.6%
[33]
  viability, T/C: 27.3%
[34]
  viability, T/C: 24.9%
[35]
  viability, T/C: 53.5%
[36]
  viability, T/C: 12.8%

## O=C(c1ccc(F)c(F)c1Nc1ccc(I)cc1F)N1CC(O)([C@@H]2CCCCN2)C1 + CCn1c(-c2cccnc2C(C)OC)c2c3cc(ccc31)N1CCOC(CC(NC(=O)C(C(C)C)N(C)C(=O)C3(F)CCN(C(=O)C#CC(C)(C)N(C)C)CC3)C(=O)N3CCCC(N3)C(=O)OCC(C)(C)C2)C1
Second compound 0.000949 µM
  IC50: 17.3 nM
Second compound 0.003 µM
  IC50: 27.1 nM
Second compound 0.00949 µM
  IC50: 41.3 nM
Second compound 0.03 µM
  IC50: 31.3 nM
Second compound 0.0949 µM
  IC50: 17.8 nM
Second compound 0.3 µM
  IC50: 6.72 nM
Second compound 0.000949 µM, first compound 0.00316 µM
  viability, T/C: 83%
Second compound 0.000949 µM, first compound 0.01 µM
  viability, T/C: 53.3%
[1]
  viability, T/C: 43.4%
[2]
  viability, T/C: 36.1%
[3]
  viability, T/C: 32.2%
[4]
  viability, T/C: 22%
Second compound 0.003 µM, first compound 0.00316 µM
  viability, T/C: 77.6%
Second compound 0.003 µM, first compound 0.01 µM
  viability, T/C: 62.5%
[7]
  viability, T/C: 45.2%
[8]
  viability, T/C: 36.1%
[9]
  viability, T/C: 33%
[10]
  viability, T/C: 18.6%
Second compound 0.00949 µM, first compound 0.00316 µM
  viability, T/C: 92.2%
Second compound 0.00949 µM, first compound 0.01 µM
  viability, T/C: 60.9%
[13]
  viability, T/C: 58.5%
[14]
  viability, T/C: 42.2%
[15]
  viability, T/C: 28.3%
[16]
  viability, T/C: 24.2%
Second compound 0.03 µM, first compound 0.00316 µM
  viability, T/C: 80%
Second compound 0.03 µM, first compound 0.01 µM
  viability, T/C: 59.6%
[19]
  viability, T/C: 51.6%
[20]
  viability, T/C: 39.2%
[21]
  viability, T/C: 29%
[22]
  viability, T/C: 22.2%
Second compound 0.0949 µM, first compound 0.00316 µM
  viability, T/C: 64.2%
Second compound 0.0949 µM, first compound 0.01 µM
  viability, T/C: 56.8%
[25]
  viability, T/C: 43.2%
[26]
  viability, T/C: 36.4%
[27]
  viability, T/C: 32.4%
[28]
  viability, T/C: 23.9%
Second compound 0.3 µM, first compound 0.00316 µM
  viability, T/C: 54.2%
Second compound 0.3 µM, first compound 0.01 µM
  viability, T/C: 46.5%
[31]
  viability, T/C: 42.2%
[32]
  viability, T/C: 37%
[33]
  viability, T/C: 31.4%
[34]
  viability, T/C: 17.8%
